What was measured:
[1] = Caco-2 permeability assay; conditions: human; for recovery at 2 h, 10 μM: Caco-2; for Papp A→B at 2 h, 10 μM: Caco-2, Mean Papp, Assay Conc. 10 μM
RIN-14B = test: Cell Titer-Glo rat insulinoma cell assay, RIN-14B; type: cell-based; conditions: cell proliferation, 168-192 h culture
Method: (§1) A Cell Titer-Glo assay was utilized to test the sensitivity of four rat insulinoma (RIN) cell lines, RIN-14B, RIN-m5F, RIN-m, and RIN-5, to Compound 1 and Compound 2.
(§2) Cells were seeded at 5000 cells per well in a 96-well microculture plate in a total volume of 100 μl/well and incubated for 24 hours. 100 μl of 2× testing compounds (Compound 1 or Compound 2), serially diluted 1:4 were added to each well. The concentrations tested for Compound 1 and Compound 2 were 20 μM, 5 μM, 1.25 μM, 0.313 μM, 0.0781 μM, 0.0195 μM, 0.00488 μM, 0.00122 μM, 0.000305 μM, and 0.0000763 μM. After 168-192 total hours of culture 100 μl of media was removed from each well and 50 μl of Cell Titer-Glo (Promega #G7571) was added to each well. The plate was shaken for 2 minutes and allowed to equilibrate for 10 minutes. Luminescence was measured on a Tecan GENios microplate reader. Percent inhibition of cell proliferation was calculated relative to untreated control wells. All tests were performed in triplicate or quadruplicates at each concentration level. IC50 values were calculated using Prism 6.00 curve-fitting with a four parameter-logistic equation.

RIN-m5F = test: Cell Titer-Glo rat insulinoma cell assay, RIN-m5F; type: cell-based; conditions: cell proliferation, 168-192 h culture
Method: as §1, §2

RIN-m = test: Cell Titer-Glo rat insulinoma cell assay, RIN-m; type: cell-based; conditions: cell proliferation, 168-192 h culture
Method: as §1, §2

RIN-5F = test: Cell Titer-Glo rat insulinoma cell assay, RIN-5F; type: cell-based; conditions: cell proliferation, 168-192 h culture
Method: as §1, §2

[2] = system: rat insulinoma (RIN) cell lines; test: Cell Titer-Glo rat insulinoma cell assay, all four cell lines; type: cell-based; conditions: all cell lines (RIN-14B, RIN-m5F, RIN-m, RIN-5)
Method: as §1, §2

BRD4(1) = BRD4(1) (Homo sapiens (Human), UniProt O60885); test: BROMOscan binding assay BRD4(1)
Method: (§3) (S)-JQ (S8) was used as a positive control.
(§4) T7 phage strains displaying bromodomains were grown in parallel in 24-well blocks in an E. coli host derived from the BL21 strain. E. coli were grown to log-phase and infected with T7 phage from a frozen stock (multiplicity of infection=0.4) and incubated with shaking at 32° C. until lysis (90-150 minutes). The lysates were centrifuged (5,000×g) and filtered (0.2 μm) to remove cell debris. […] The liganded beads were blocked with excess biotin and washed with blocking buffer (SeaBlock (Pierce), 1% BSA, 0.05% Tween 20, 1 mM DTT) to remove unbound ligand and to reduce non-specific phage binding.
(§5) Test compounds were prepared as 1000× stocks in 100% DMSO and subsequently serially diluted 1:10 in monoethylene glycol (MEG) to create stocks at 100× the screening concentration (resulting stock solution is 10% DMSO/90% MEG). The compounds were then diluted directly into the assays such that the final concentration of DMSO and MEG were 0.1% and 0.9%, respectively. All reactions were performed in polystyrene 96-well plates in a final volume of 0.135 ml. […] The bromodomain concentration in the eluates was measured by qPCR.
(§6) Most Kds were determined using a compound top concentration=10,000 nM.
(§7) Binding constants (Kds) were calculated with a standard dose-response curve using the Hill equation. The Hill Slope was set to −1. Curves were fitted using a non-linear least square fit with the Levenberg-Marquardt algorithm. […] The amount of bromodomain was measured by qPCR (y-axis) and was plotted against the corresponding compound concentration in nM in log 10 scale.

BRD4(2) = BRD4(2) (Homo sapiens (Human), UniProt O60885); test: BROMOscan binding assay BRD4(2)
Method: as §3, §4, §5, §6, §7

[3] = IV and oral pharmacokinetics in male Sprague-Dawley rats; type: in vivo, rat; conditions: for exposures following IV administration: IV 1 mg/kg; for Extrapolated / AUC(0-inf) / AUC(0-t) / Cmax / Tmax / half-life: rat plasma; for bioavailability / AUC(0-inf) / AUC(0-t) / Cmax / Tmax / half-life: male, Sprague-Dawley; for bioavailability: rat, plasma, PO 5 mg/kg, read-out: oral bioavailability F
Method: Male Sprague-Dawley (˜250-325 g) with indwelling jugular vein cannulae (JVC) were purchased and allowed to acclimate to the test facility for a minimum of 2 days. All animals were fasted overnight prior to dosing. Oral formulations were prepared by weighing the appropriate amount of the compound into formulation vial and adding the appropriate volume of DMSO (10%), Solutol HS-15 (10%), and saline (80%) (See Table 0 for compound amounts and concentrations of all formulations). Once the test compound was in the vial, DMSO was added and the vial was vortexed for 1-2 minutes and sonicated for 3 minutes. The appropriate volume of Solutol HS-15 was then added to formulation vial and the vial was vortexed for 1-2 minutes and sonicated for 2 minutes. Saline was added and the pH adjusted to about 6.8-7.4, and the vial was vortexed for 2 minutes.
Oral dosing was performed using a ball-tipped gavage needle. […] No abnormalities were observed during the course of the study. Serial samples were collected by via tail snip, or facial vein. Blood samples were collected into NaF Na2EDTA tubes and stored on wet ice until processed to plasma by centrifugation (3500 rpm for 10 minutes at 5° C.) within 30 minutes of collection. Plasma samples were transferred into matrix tubes and stored at −80° C. until transferred to analytical chemistry for analysis. The cellular fraction was discarded. Dose formulation and plasma samples were analyzed for parent drug and metabolite by Agilux Laboratories via LC/MS/MS using an RGA I assay.

Caco-2 = Caco-2 permeability assay; conditions: Assay Conc. 10 μM
in vitro = conditions: human
[4] = PO Dose (5 mg/kg) vs IV (1 mg/kg)

SMILES	recovery at 2 h, 10 μM [1]	Papp A→B at 2 h, 10 μM [1]	Kd (BRD4(1))	Kd values / in vitro binding activity to BRD4(1), in words (BRD4(1))	Kd (BRD4(2))	Kd values / in vitro binding activity to BRD4(2), in words (BRD4(2))	exposures following IV administration [3]	Extrapolated ([3]; IV Dose (1 mg/kg))	bioavailability [3]	AUC(0-inf) ([3]; IV Dose (1 mg/kg))	AUC(0-t) ([3]; IV Dose (1 mg/kg))	Cmax ([3]; IV Dose (1 mg/kg))	Tmax ([3]; IV Dose (1 mg/kg))	half-life ([3]; IV Dose (1 mg/kg))	AUC(0-t) ([3]; PO Dose (5 mg/kg))	Cmax ([3]; PO Dose (5 mg/kg))	Tmax ([3]; PO Dose (5 mg/kg))	other results
Cc1sc2c(c1C)C(c1ccc(Cl)cc1)=N[C@@H](CC(=O)OC(C)(C)C)c1nnc(C)n1-2 [(S)-JQ1, reference compound]	84.6%	35.4 ×10⁻⁶ cm/s	–	–	–	–	–	–	–	–	–	–	–	–	–	–	–	–
Cc1sc2c(c1C)C(c1ccc(Cl)cc1)=N[C@@H](CC(=O)OC1CCC(O)CC1)c1nnc(C)n1-2 (stereo partly shown) [Compound 1]	98.5%	30.7 ×10⁻⁶ cm/s	1.3 nM	low Kd values	1.5 nM	low Kd values	detected	0.41%	> 23%	1500 ng·h/mL	1500 ng·h/mL	1490 ng/mL	4.98 min	47.9 min	2360 ng·h/mL	619 ng/mL	60 min	IC50 (RIN-14B): 9.3 nM; IC50 (RIN-m5F): 11.3 nM; IC50 (RIN-m): 12.6 nM; IC50 (RIN-5F; Rattus norvegicus): 21.6 nM; IC50 (RIN-5F): 19.5 nM; IC50 [2]: < 40 nM; F* ([3]; PO Dose (5 mg/kg) vs IV (1 mg/kg), AUC0-last was used to calculate % F): 31.6%
Cc1sc2c(c1C)C(c1ccc(Cl)cc1)=N[C@@H](CC(=O)OCC(C)O)c1nnc(C)n1-2 (stereo partly shown) [Compound 2]	95.3%	30.6 ×10⁻⁶ cm/s	1.9 nM	low Kd values	1.9 nM	low Kd values	detected	4.62%	> 23%	–	–	790 ng/mL	4.98 min	27.4 min	2720 ng·h/mL	820 ng/mL	60 min	IC50 (RIN-14B): 26.5 nM; IC50 (RIN-m5F): 42.3 nM; IC50 (RIN-m): 41.5 nM; IC50 (RIN-5F; Rattus norvegicus): 64.5 nM; IC50 (RIN-5F): 59.9 nM; IC50 [2]: < 80 nM; F [3, 4]: 102.2%; AUC(0-inf) ([3]; PO Dose (5 mg/kg)): 3030 ng·h/mL; half-life ([3]; PO Dose (5 mg/kg)): 107 min
Cc1sc2c(c1C)C(c1ccc(Cl)cc1)=N[C@@H](CC(=O)OCCO)c1nnc(C)n1-2 [Compound 3]	88.7%	29.8 ×10⁻⁶ cm/s	1.1 nM	low Kd values	1.2 nM	low Kd values	–	–	–	–	–	–	–	–	–	–	–	–
Cc1sc2c(c1C)C(c1ccc(Cl)cc1)=N[C@@H](CC(=O)OCCCO)c1nnc(C)n1-2 [Compound 4]	99.4%	35.6 ×10⁻⁶ cm/s	1.1 nM	low Kd values	1.3 nM	low Kd values	detected	0.28%	> 23%	784 ng·h/mL	782 ng·h/mL	1130 ng/mL	4.98 min	48.4 min	813 ng·h/mL	480 ng/mL	30 min	F [3, 4]: 23.4%; AUC(0-inf) ([3]; PO Dose (5 mg/kg)): 918 ng·h/mL; half-life ([3]; PO Dose (5 mg/kg)): 110 min
Cc1sc2c(c1C)C(c1ccc(Cl)cc1)=N[C@@H](CC(=O)OCCCCCCO)c1nnc(C)n1-2 [Compound 5]	88.7%	39.9 ×10⁻⁶ cm/s	–	low Kd values	0.4 nM	low Kd values	detected	0.75%	–	516 ng·h/mL	512 ng·h/mL	1070 ng/mL	4.98 min	18.1 min	12.1 ng·h/mL	12.2 ng/mL	30 min	–
Cc1sc2c(c1C)C(c1ccc(Cl)cc1)=N[C@@H](CC(=O)OCC(O)CO)c1nnc(C)n1-2 (stereo partly shown) [Compound 6]	90.8%	4.74 ×10⁻⁶ cm/s	–	–	–	–	–	–	–	–	–	–	–	–	–	–	–	–
Cc1sc2c(c1C)C(c1ccc(Cl)cc1)=N[C@@H](CC(=O)OC/C(Br)=C(\Br)CO)c1nnc(C)n1-2 [Compound 7]	76.9%	31.3 ×10⁻⁶ cm/s	1.5 nM	low Kd values	2.1 nM	low Kd values	–	–	–	–	–	–	–	–	–	–	–	–
CNC(=C[N+](=O)[O-])NCCSCc1ccc(CN(C)C)o1 [Ranitidine, reference compound]	–	–	–	–	–	–	–	–	–	–	–	–	–	–	–	–	–	Mean % recovery (Caco-2): 97.8%; Mean Papp, A-B (Caco-2; 2 hours): 0.170 10^−6 cm/s
CC(=O)CC(c1ccccc1)c1c(O)c2ccccc2oc1=O (stereo not shown) [Warfarin]	–	–	–	–	–	–	–	–	–	–	–	–	–	–	–	–	–	recovery at 2 h, 10 μM (in vitro; Caco-2): 99.9%; Papp A→B at 2 h, 10 μM (in vitro; Caco-2, Mean Papp, A-B): 38.8 ×10⁻⁶ cm/s

— patent publication US10124009B2, “Bromodomain inhibitors” (Tensha Therapeutics, Inc., priority 2014, dated 2018)
